Results: publication PMC7594079, “Insights into the Function and Evolution of Taste 1 Receptor Gene Family in the Carnivore Fish Gilthead Seabream (Sparus aurata)” (International Journal of Molecular Sciences, 2020)

biological target: T1, saT1R2a/R3 (Sparus aurata, UniProt A0A671TK95+A0A671VZB3); assay: saT1R2a/R3 heterodimer transiently transfected in stable pGL3-NFAT-luc-HEK293 (Cl.3) cells, luciferase reporter; format: cell-based; conditions: as molarity; decimal comma
T1 sequence (A0A671TK95 20-825): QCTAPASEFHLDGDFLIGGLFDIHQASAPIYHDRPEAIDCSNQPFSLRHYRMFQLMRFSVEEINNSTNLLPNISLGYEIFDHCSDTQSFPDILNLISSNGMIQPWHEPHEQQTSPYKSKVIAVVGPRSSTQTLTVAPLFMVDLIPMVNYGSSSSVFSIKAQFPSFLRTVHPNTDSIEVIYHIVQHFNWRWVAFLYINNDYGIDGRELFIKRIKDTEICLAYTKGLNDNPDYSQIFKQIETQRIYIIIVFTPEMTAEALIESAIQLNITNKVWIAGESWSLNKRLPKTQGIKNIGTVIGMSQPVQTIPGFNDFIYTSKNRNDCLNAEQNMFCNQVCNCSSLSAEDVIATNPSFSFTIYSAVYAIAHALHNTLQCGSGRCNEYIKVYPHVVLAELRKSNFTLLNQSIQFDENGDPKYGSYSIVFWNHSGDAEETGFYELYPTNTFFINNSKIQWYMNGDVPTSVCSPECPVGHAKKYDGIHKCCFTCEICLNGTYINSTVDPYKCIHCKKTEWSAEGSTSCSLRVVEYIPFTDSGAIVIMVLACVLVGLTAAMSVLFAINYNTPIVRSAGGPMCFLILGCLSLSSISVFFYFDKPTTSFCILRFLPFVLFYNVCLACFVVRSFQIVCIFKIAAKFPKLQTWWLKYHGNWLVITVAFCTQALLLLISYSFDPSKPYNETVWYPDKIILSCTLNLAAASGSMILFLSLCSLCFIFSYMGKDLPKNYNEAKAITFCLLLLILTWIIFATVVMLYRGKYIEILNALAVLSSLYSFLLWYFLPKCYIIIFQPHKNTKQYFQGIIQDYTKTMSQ
T1 sequence (A0A671VZB3 24-860): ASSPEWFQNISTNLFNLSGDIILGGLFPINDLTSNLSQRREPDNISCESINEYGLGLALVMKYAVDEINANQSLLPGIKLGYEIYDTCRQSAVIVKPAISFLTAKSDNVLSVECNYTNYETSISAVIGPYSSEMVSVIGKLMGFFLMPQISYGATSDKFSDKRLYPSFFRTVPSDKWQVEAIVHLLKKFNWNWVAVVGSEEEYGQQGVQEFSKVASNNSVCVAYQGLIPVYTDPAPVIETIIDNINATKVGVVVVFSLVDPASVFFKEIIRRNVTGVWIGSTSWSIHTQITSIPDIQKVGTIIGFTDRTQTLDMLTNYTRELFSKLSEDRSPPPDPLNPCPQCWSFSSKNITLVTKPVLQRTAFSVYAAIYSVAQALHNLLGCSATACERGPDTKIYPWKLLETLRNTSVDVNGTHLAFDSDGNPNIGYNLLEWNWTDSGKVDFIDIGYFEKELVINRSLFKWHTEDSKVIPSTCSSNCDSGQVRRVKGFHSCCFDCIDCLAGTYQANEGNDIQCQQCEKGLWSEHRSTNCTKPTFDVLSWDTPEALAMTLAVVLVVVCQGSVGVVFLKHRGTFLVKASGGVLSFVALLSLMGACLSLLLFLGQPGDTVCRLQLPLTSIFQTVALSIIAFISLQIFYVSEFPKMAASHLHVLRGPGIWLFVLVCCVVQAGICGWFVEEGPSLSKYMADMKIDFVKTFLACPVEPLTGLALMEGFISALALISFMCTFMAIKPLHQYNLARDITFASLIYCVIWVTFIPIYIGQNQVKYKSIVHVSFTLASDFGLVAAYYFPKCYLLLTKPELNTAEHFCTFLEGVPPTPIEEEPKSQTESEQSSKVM
Description: Figure 6 Amino acid Log-dose response curves of activation in heterologous co-transfected (Cl.3) cells with saT1R1/3 (green dots), saT1R2a/3 (red squares) and saT1R2b/3 (black triangles) heterodimers. Evaluation of L-AA responses was based on the RLU mean ± SEM of four independent determinations normalized to the mean response of the same transfections stimulated with reduced assay medium (Basal Medium Eagle w/o L-glutamate (BME) + 1% FBS), and expressed as the percentage relative to basal levels (BL).
HEK293 cells were cultured in standard medium DMEM (Gibco, Thermo Fisher, Saint Louis, MO, USA) containing 10% FBS, penicillin (100 U/mL) and streptomycin ([…]) at 37 °C, with a humidified atmosphere at 5% CO2. pGL3-NFAT-luc-HEK293 stable clones were generated by co-transfections of pGL3-NFAT-luc and tgCMV/HyTK plasmids (50:1), the latter harboring the hygromycin phosphotransferase gene, using Lipofectamine LTX according to supplier’s protocols (Thermo Fisher, Saint Louis, MO, USA). Initially, HEK293 cells were selected using DMEM containing 400 μg/mL hygromycin B (Sigma, Darmstadt, Germany) in 24-well plates for two weeks; 24 colonies were further grown out in 96-well plates under reduced hygromycin selection (200 µg/mL) for three weeks. Potentially resistant NFAT-luc-HEK293 clones (n = 22) were validated after incubation in assay medium (DMEM + 1% FBS) containing PMA or Ionomycin (Sigma, Darmstadt, Germany) for 18 h (triplicates, 50,000 cells/well). Luciferase activity was quantified with ONE-Glo™ EX Reagent Kit (Promega, Madison, WI, USA) using a 96-microplate TECAN reader (Trading AG, Switzerland).
saT1Rs (saT1R1, saT1R2a, saT1R2b saT1R3) and saGαi1-2 genes were RT-PCR amplified using 5’ and 3’ flanking primers carrying HindIII and XhoI restriction sites, respectively. Gel-purified fragments were cloned into pGEM-T Easy vectors, re-sequenced, digested and subcloned into pcDNA™3 (Invitrogen, Carlsbad, CA, USA). Effective saT1R cloning into pcDNA™3 was further verified by HindIII/XhoI digestion. Transient co-transfections were done in 6-well plates (confluence ~70–80%) using 100 μL of reduced serum medium (Opti-MEM, Gibco, Thermo Fisher, Saint Louis, MO, USA) containing 150 ng of each selected pcDNA™3 construct, 1:10 charge ratio of Enhanced Green Fluorescent expressing construct (EGFP; positive control), and pBluescript II SK (+) vector DNA (Addgene, Watertown, MA, USA) up to 1 µg of totally transfected DNA. Following 24 h incubation, cells were washed with fresh standard medium and plated in polylysine treated plates for additional 24 h. Cells were then stimulated with L-AAs and sugar compounds for 18 h in a reduced assay medium (BME w/o L-glutamate; Gibco, Thermo Fisher, Saint Louis, MO, USA) + 1% FBS), to prevent unspecific Ca^2+/NFAT signaling activation and potential saT1R desensitization. All L-AAs and sugars used for in vitro experiments were obtained from Merck KGaA (Darmstadt, Germany).

SMILES	T1R2a/R3 [MSD] maximum stimulation dose
NC(=O)CC[C@H](N)C(=O)O [Gln, Glutamine]	1,00 × 10^-1 M
NCCCC[C@H](N)C(=O)O [Lys, Lysine]	1,00 × 10^-3 M
NC(=O)C[C@H](N)C(=O)O [Asn, Asparagine]	1,00 × 10^-1 M
N[C@@H](Cc1c[nH]c2ccccc12)C(=O)O [Trp, Tryptophan]	1,00 × 10^-3 M
N[C@@H](Cc1c[nH]cn1)C(=O)O [His, Histidine]	1,00 × 10^-5 M
CC(C)C[C@H](N)C(=O)O [Leu, Leucine]	1,00 × 10^-1 M
NCC(=O)O [Gly, Glycine]	1,00 × 10^-1 M
N[C@@H](CS)C(=O)O [Cys, Cysteine]	1,00 × 10^-4 M
N[C@@H](CC(=O)O)C(=O)O [Asp, Aspartic acid]	1,00 × 10^-5 M
N[C@@H](Cc1ccccc1)C(=O)O [Phe, Phenylalanine]	1,00 × 10^-2 M
CSCC[C@H](N)C(=O)O [Met, Methionine]	1,00 × 10^-1 M
CC(C)[C@H](N)C(=O)O [Val, Valine]	1,00 × 10^-1 M
O=C(O)[C@@H]1CCCN1 [Pro, Proline]	1,00 × 10^-1 M
N[C@@H](CCC(=O)O)C(=O)O [Glu, Glutamic acid]	1,00 × 10^-2 M
C[C@@H](O)[C@H](N)C(=O)O [Thr, Threonine]	1,00 × 10^-1 M
N=C(N)NCCC[C@H](N)C(=O)O [Arg, Arginine]	1,00 × 10^-5 M
CC[C@H](C)[C@H](N)C(=O)O [Ile, Isoleucine]	1,00 × 10^-1 M
C[C@H](N)C(=O)O [Ala, Alanine]	1,00 × 10^-1 M
N[C@@H](Cc1ccc(O)cc1)C(=O)O [Tyr, Tyrosine]	1,00 × 10^-3 M
N[C@@H](CO)C(=O)O [Ser, Serine]	1,00 × 10^-1 M

same assay, conditions: saT1R2a/R3; tested 1–500 mM

SMILES	concentration with significant activation [mM]
OC[C@H]1OC(O)[C@H](O)[C@@H](O)[C@@H]1O (stereo partly drawn) [D-Glucose]	200
